The source of these data is patent US20060223780A1, “Method for administration of capecitabine” (priority 2005, published 2006).

Each structure is given as a SMILES string.

In one series the test system is MAXF 401. The note with it: cited from earlier work.
In series [1] the test system is tumor. The series can be described thus: Experiment 2 data: Gompertzian growth / drug effect (DE) population modelling with NONMEM. It counts as in vivo. To be noted: for time of maximal DE after start of treatment, average / time of maximal DE after start of treatment, range: individual data; for time of maximal drug effect (DE) after start of treatment / Day on which the drug effect (DE) is maximal, F'(x)≈0: pooled data; for Day on which the drug effect (DE) is maximal, F'(x)≈0: start of treatment day 17. The method, then:
Therefore, the data were then analyzed for the approved (14/7) chemotherapy drug schedule by measuring at each time point after the initiation of therapy the ratio of the (data-derived) expected Gompertzian growth rate in the unperturbed (control) state compared with that observed in the treated state. Curve-fitting was performed by non-linear mixed-effect population modeling using NONMEM software.
The Analysis performed used a non-linear mixed effects population modelling approach with the NONMEM software:
A) with the Gompertzian growth model (TV: tumor volume): • dTV/dt=α*TV−((α/log(TVinf))*TV*log(TV))
B) and the drug effect (DE) model • dTV/dt=α*TV−((α/log(TVinf)*TV*log(TV))*(1−DE)

Series [2] concerns tumor. The series can be described thus: Experiment 2: schedules at the same daily dosages (survival, tumor volume, body weight). It counts as in vivo. An excerpt: Following is the design of the final experiment with the schedules and dosages used (Table 2): […]
The subject of the next series is MX-1. To be noted: cited from earlier work.
For series [3] the following is noted: approved dose and schedule of capecitabine; cited from earlier work.
[4] abbreviates: Schedule C (2 d on, 5 d off), even at the lowest daily dosages.
[5] abbreviates: non toxic doses, compared between schedules, p.o.

With `CCCCCOC(=O)Nc1nc(=O)n([C@@H]2O[C@H](C)[C@@H](O)[C@H]2O)cc1F` [capecitabine, 5′-deoxy-5-fluoro-N-[(pentyloxy)-carbonyl]-cytidine], the “toxicity (death of mice)” value with MAXF 401 (setting [4]) and in the series on MX-1 (setting [4]) was “most of the mice died” in each case. For the same compound, the “antitumor efficacy (tumor growth inhibition after 6 weeks of treatment)” value in the series with MAXF 401 (setting [5]) and with MX-1 (setting [5]) was “equivalent” in each case. Moreover, the “time of maximal DE after start of treatment, average” value was 8.3 days in the series on tumor [1] (1.5 mmol/kg/day) and 10.1 days in the series with tumor [1] (2.25 mmol/kg/day). Besides, the “time of maximal DE after start of treatment, range” value lay within 6 to 11 days in the series on tumor [1] (1.5 mmol/kg/day) and 5 to 18 days in the series on tumor [1] (2.25 mmol/kg/day). The “time of maximal drug effect (DE) after start of treatment” value in the series with tumor [1] (1.5 mmol/kg/day) worked out at 10 days; in the series on tumor [1] (2.25 mmol/kg/day) it was 8 days. Further, the entries for the “Day on which the drug effect (DE) is maximal, F'(x)≈0” value with tumor [1] (1.5 mmol/kg/day) and in the series with tumor [1] (2.25 mmol/kg/day) were 27 and 25, respectively. In addition, the “time point of maximum impact of treatment (averages), into therapy” value in the series on tumor [1] (all dose levels analyzed, 14/7 schedule) fell in the range of 8.3 to 10.1 days. The toxicity entry is recorded as “increased levels of toxicity” with tumor [2] (higher 2 dose levels, 14 days of treatment compared to shorter treatment durations (dose comparison, Tables 4-1, 4-2)) and “increased levels of toxicity” in the series with tumor [2] (higher dose levels 24, 14 days of treatment compared to shorter treatment durations (schedule comparison, Tables 5-1, 5-2)). Further, in the series with tumor [2] (higher daily dosage, reduced number of treatment days, reintroduced after a rest period), the safety profile entry is on record as “same or a better safety profile”. The survival curves entry in the series on tumor [2] (lower 2 dose ranges, 14 days on/7 days off vs 7 days on/7 days off) was “similar”. Also, in the series on tumor [2] (lowest dose level), the “efficacy (tumor volume), schedule comparison at the same daily dosages” value is on record as “advantage in efficacy towards the 14 days on/7 days off schedule”. Also, the efficacy entry in the series with tumor [2] (schedules with a fewer number of treatment days, at higher dose levels) was “higher efficacy”. Also, the tumor volume reduction result in the series on tumor [2] (two lowest dose levels, 14 days on/7 days off vs 7 days on/7 days off) is recorded as “similar”. The “median time to onset of hand-foot syndrome” value in series [3] is listed as “about 79 days”.
